Laboratory results as given in patent US11524962B2, “Substituted pyrrolo[2,3-d]pyrimidines as inhibitors of protein arginine methyl transferase 5 (PRMT5)” (PRELUDE THERAPEUTICS, INCORPORATED, priority 2017, dated 2022).
pIC50: −log10 of the molar value.

Key:
PRMT5/MEP50 complex [1] = biological target: T1, PRMT5/MEP50 complex (Homo sapiens (Human), UniProt O14744); assay: HotSpot Assay; type: biochemical
Experimental: HotSpot Assay. Compounds were solubilized and 3-fold diluted in 100% DMSO. […] Standard reactions were performed in a total volume of 50 μl in assay buffer, with histone H2A (5 μM final) as substrate. To this was added the PRMT5/MEP50 complex diluted to provide a final assay concentration of 5 nM and the compounds were allowed to preincubate for 15 to 20 minutes at room temperature. The reaction was initiated by adding S-[3H-methyl]-adenosyl-L-methionine (PerkinElmer) to final concentration of 1 μM. Following a 60 minutes incubation at 30° C., the reaction was stopped by adding 100 μL of 20% TCA. Each reaction was spotted onto filter plate (MultiScreen FB Filter Plate, Millipore), and washed 5 times with PBS buffer, Scintillation fluid was added to the filter plate and read in a scintillation counter. IC50 values were determined by fitting the data to the standard 4 parameters with Hill Slope using GraphPad Prism software. This procedure generated the HotSpot data in Table 7.

PRMT5/MEP50 complex [2] = biological target: T1, PRMT5/MEP50 complex; assay: Flash plate assay; type: biochemical; details: read-out: Flash Plate IC50
Experimental: Flash plate assay. Compounds were solubilized, and 3-fold diluted in 100% DMSO. […] Standard reactions were performed in a total volume of 30 μl in assay buffer, with 300 nM histone H4 based AcH4-23 (Anaspec: AS-65002) as substrate. To this was added the PRMT5/MEP50 complex diluted to provide a final assay concentration of 2.5 nM and the compounds were allowed to preincubate for 20 minutes at 37° C. The reaction was initiated by adding S-[3H-methyl]-adenosyl-L-methionine (PerkinElmer: NET155001MC) to final concentration of 1 μM. Following a 30 minutes incubation at 37° C., the reaction was stopped by adding 25 μL of 8M Guanidine HCl. Prepare streptavidin YSI SPA beads (Perkinelmer: RPNQ0012) at 0.3 mg/mL in assay buffer. To each reaction, add 150 μL of SPA beads suspension, and incubated while shaking at room temperature for 30 minutes. The plate was centrifuged at 100×g for 30 second before reading in a scintillation counter. IC50 values were determined by fitting the data to the standard 4 parameters with Hill Slope using GraphPad Prism software. This procedure produced the Flash Plate data in Table 7.

T1 sequence (O14744 whole entry): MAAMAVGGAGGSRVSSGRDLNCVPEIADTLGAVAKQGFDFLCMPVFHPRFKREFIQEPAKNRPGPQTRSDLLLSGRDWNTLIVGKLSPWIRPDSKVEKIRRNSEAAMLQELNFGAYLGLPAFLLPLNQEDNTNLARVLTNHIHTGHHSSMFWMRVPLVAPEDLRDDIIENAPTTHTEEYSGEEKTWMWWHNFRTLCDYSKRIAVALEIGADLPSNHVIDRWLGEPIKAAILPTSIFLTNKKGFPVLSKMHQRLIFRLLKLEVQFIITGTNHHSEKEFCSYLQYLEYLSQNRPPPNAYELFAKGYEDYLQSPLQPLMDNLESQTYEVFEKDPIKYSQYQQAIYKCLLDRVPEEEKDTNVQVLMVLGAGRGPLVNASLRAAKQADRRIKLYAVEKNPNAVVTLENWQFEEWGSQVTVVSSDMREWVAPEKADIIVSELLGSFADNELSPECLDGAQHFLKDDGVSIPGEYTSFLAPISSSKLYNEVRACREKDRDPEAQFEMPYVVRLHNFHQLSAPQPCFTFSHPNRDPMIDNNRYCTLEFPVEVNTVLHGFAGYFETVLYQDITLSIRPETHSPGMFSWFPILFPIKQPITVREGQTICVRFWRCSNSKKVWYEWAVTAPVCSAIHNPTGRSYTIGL
T1 sequence (Q9BQA1 whole entry partner): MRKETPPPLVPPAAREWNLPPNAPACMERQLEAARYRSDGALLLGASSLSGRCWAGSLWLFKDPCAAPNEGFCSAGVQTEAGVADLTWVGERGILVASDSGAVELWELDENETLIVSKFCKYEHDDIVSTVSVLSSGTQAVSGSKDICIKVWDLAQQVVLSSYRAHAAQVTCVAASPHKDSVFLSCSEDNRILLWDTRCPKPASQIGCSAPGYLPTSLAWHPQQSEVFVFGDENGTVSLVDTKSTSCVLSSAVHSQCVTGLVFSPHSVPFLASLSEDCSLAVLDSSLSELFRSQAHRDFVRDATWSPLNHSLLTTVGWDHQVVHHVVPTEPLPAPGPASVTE

| Structure (SMILES) | pIC50 (PRMT5/MEP50 complex [1]) | pIC50 (PRMT5/MEP50 complex [2]) |
| --- | --- | --- |
| CO/N=c1\[nH]cnc2c1ccn2[C@@H]1O[C@H]([C@H](O)c2ccc3c(c2)CC3)[C@@H](O)[C@H]1O [Example 20, 7-((2R,3R,4S,5R)-5-((R)-bicyclo[4.2.0]octa-1(6),2,4-trien-3-yl(hydroxy)methyl)-3,4-dihydroxytetrahydrofuran-2-yl)-3,7-dihydro-4H-pyrrolo[2,3-d]pyrimidin-4-one O-methyl oxime] | 7.49 | 6.92 |
| CCO/N=c1\[nH]cnc2c1ccn2[C@@H]1O[C@H]([C@H](O)c2ccc3c(c2)CC3)[C@@H](O)[C@H]1O [Example 21, 7-((2R,3R,4S,5R)-5-((R)-bicyclo[4.2.0]octa-1(6),2,4-trien-3-yl(hydroxy)methyl)-3,4-dihydroxytetrahydrofuran-2-yl)-3,7-dihydro-4H-pyrrolo[2,3-d]pyrimidin-4-one O-ethyl oxime] | 6.82 | 6.83 |
| CCO/N=c1\[nH]cnc2c1ccn2[C@@H]1O[C@H]([C@](C)(O)c2ccc3c(c2)CC3)[C@@H](O)[C@H]1O [Example 22, 7-((2R,3R,4S,5S)-5-((R)-1-(bicyclo[4.2.0]octa-1(6),2,4-trien-3-yl)-1-hydroxyethyl)-3,4-dihydroxytetrahydrofuran-2-yl)-3,7-dihydro-4H-pyrrolo[2,3-d]pyrimidin-4-one O-ethyl oxime] | 7.24 | 6.72 |
| CN(C)C(=O)Nc1ncnc2c1ccn2[C@@H]1O[C@H]([C@H](O)c2ccc3c(c2)CC3)[C@@H](O)[C@H]1O [Example 23, 3-(7-((2R,3R,4S,5R)-5-((R)-bicyclo[4.2.0]octa-1(6),2,4-trien-3-yl(hydroxy)methyl)-3,4-dihydroxytetrahydrofuran-2-yl)-7H-pyrrolo[2,3-d]pyrimidin-4-yl)-1,1-dimethylurea] | – | 6.16 |
| COc1ncnc2c1ccn2[C@@H]1O[C@H]([C@H](O)c2ccc3c(c2)CC3)[C@@H](O)[C@H]1O [Example 35, (2R,3S,4R,5R)-2-[(R)-4-bicyclo[4.2.0]octa-1,3,5-trienyl(hydroxy)methyl]-5-(4-methoxypyrrolo[2,3-d]pyrimidin-7-yl)tetrahydrofuran-3,4-diol] | 7.34 | 6.54 |
| Nc1ncnc2c1c(I)cn2[C@@H]1O[C@H]([C@H](O)c2ccc3c(c2)CC3)[C@@H](O)[C@H]1O [Example 37, (2R,3R,4S,5R)-2-(4-amino-5-iodo-7H-pyrrolo[2,3-d]pyrimidin-7-yl)-5-((R)-bicyclo[4.2.0]octa-1(6),2,4-trien-3-yl(hydroxy)methyl)tetrahydrofuran-3,4-diol] | 7.92 | 7.51 |
| Nc1ncnc2c1c(C(F)(F)F)cn2[C@@H]1O[C@H]([C@H](O)c2ccc3c(c2)CC3)[C@@H](O)[C@H]1O [Example 38, (2R,3R,4S,5R)-2-(4-amino-5-(trifluoromethyl)-7H-pyrrolo[2,3-d]pyrimidin-7-yl)-5-((R)-bicyclo[4.2.0]octa-1(6),2,4-trien-3-yl(hydroxy)methyl)tetrahydrofuran-3,4-diol] | 6.43 | 6.66 |
| C[C@](O)(c1ccc2c(c1)CC2)[C@H]1O[C@@H](n2ccc3c(N)ncnc32)[C@H](O)[C@@H]1O [Example 39, (2R,3R,4S,5S)-2-(4-amino-7H-pyrrolo [2,3-d]pyrimidin-7-yl)-5-((S)-1-(bicyclo[4.2.0]octa-1(6),2,4-trien-3-yl)-1-hydroxyethyl)tetrahydrofuran-3,4-diol] | – | 5.91 |
| C=C(C)c1ncnc2c1ccn2[C@@H]1O[C@H]([C@H](O)c2ccc3c(c2)CC3)[C@@H](O)[C@H]1O [Example 40, (2R,3S,4R,5R)-2-((R)-bicyclo[4.2.0]octa-1(6),2,4-trien-3-yl(hydroxy)methyl)-5-(4-(prop-1-en-2-yl)-7H-pyrrolo[2,3-d]pyrimidin-7-yl)tetrahydrofuran-3,4-diol] | – | 5.99 |
| CC(C)c1ncnc2c1ccn2[C@@H]1O[C@H]([C@H](O)c2ccc3c(c2)CC3)[C@@H](O)[C@H]1O [Example 41, (2R,3S,4R,5R)-2-((R)-bicyclo[4.2.0]octa-1(6),2,4-trien-3-yl(hydroxy)methyl)-5-(4-isopropyl-7H-pyrrolo[2,3-d]pyrimidin-7-yl)tetrahydrofuran-3,4-diol] | – | 6.64 |
| CCCCc1ncnc2c1ccn2[C@@H]1O[C@H]([C@H](O)c2ccc3c(c2)CC3)[C@@H](O)[C@H]1O [Example 42, (2R,3S,4R,5R)-2-((R)-bicyclo[4.2.0]octa-1,3,5-trien-3-yl(hydroxy)methyl)-5-(4-butyl-7H-pyrrolo[2,3-d]pyrimidin-7-yl)tetrahydrofuran-3,4-diol] | – | 6.41 |
| OCc1ncnc2c1ccn2[C@@H]1O[C@H]([C@H](O)c2ccc3c(c2)CC3)[C@@H](O)[C@H]1O [Example 43, (2R,3S,4R,5R)-2-((R)-bicyclo[4.2.0]octa-1,3,5-trien-3-yl(hydroxy)methyl)-5-(4-(hydroxymethyl)-7H-pyrrolo[2,3-d]pyrimidin-7-yl)tetrahydrofuran-3,4-diol] | – | 6.74 |
| C=Cc1ncnc2c1ccn2[C@@H]1O[C@H]([C@H](O)c2ccc3c(c2)CC3)[C@@H](O)[C@H]1O [Example 46, (2R,3S,4R,5R)-2-((R)-bicyclo[4.2.0]octa-1(6),2,4-trien-3-yl(hydroxy)methyl)-5-(4-vinyl-7H-pyrrolo[2,3-d]pyrimidin-7-yl)tetrahydrofuran-3,4-diol] | – | 5.69 |
| Cc1ncnc2c1ccn2[C@@H]1O[C@H]([C@@H](O)c2ccc3c(c2)CC3)[C@@H](O)[C@H]1O [Example 47, (2R,3S,4R,5R)-2-((S)-bicyclo[4.2.0]octa-1,3,5-trien-3-yl(hydroxy)methyl)-5-(4-methyl-7H-pyrrolo[2,3-d]pyrimidin-7-yl)tetrahydrofuran-3,4-diol] | – | 6.56 |
| CCOCc1ncnc2c1ccn2[C@@H]1O[C@H]([C@H](O)c2ccc3c(c2)CC3)[C@@H](O)[C@H]1O [Example 50, (2R,3S,4R,5R)-2-((R)-bicyclo[4.2.0]octa-1(6),2,4-trien-3-yl(hydroxy)methyl)-5-(4-(ethoxymethyl)-7H-pyrrolo[2,3-d]pyrimidin-7-yl)tetrahydrofuran-3,4-diol] | – | 5.60 |
| O[C@@H]1[C@H](O)[C@@H]([C@H](O)c2ccc3c(c2)CC3)O[C@H]1n1ccc2c(CCl)ncnc21 [Example 51, (2R,3S,4R,5R)-2-((R)-bicyclo[4.2.0]octa-1(6),2,4-trien-3-yl(hydroxy)methyl)-5-(4-(chloromethyl)-7H-pyrrolo[2,3-d]pyrimidin-7-yl)tetrahydrofuran-3,4-diol] | – | 7.29 |
| O[C@@H]1[C@H](O)[C@@H]([C@H](O)c2ccc3c(c2)CC3)O[C@H]1n1ccc2c(CCOCc3ccccc3)ncnc21 [Example 55, (2R,3R,4S,5R)-2-(4-(2-(benzyloxy)ethyl)-7H-pyrrolo[2,3-d]pyrimidin-7-yl)-5-((R)-bicyclo[4.2.0]octa-1(6),2,4-trien-3-yl(hydroxy)methyl)tetrahydrofuran-3,4-diol] | – | 6.70 |
